Laboratory results as given in US8778921B2, “Ansamycin hydroquinone compositions” (Infinity Pharmaceuticals, Inc., priority 2008, dated 2014).

How the values were obtained:
[1] = Stability at 40° C. and 75% relative humidity (percent purity by HPLC); format: physicochemical; conditions: 40° C. and 75% RH
Method: As used herein, a “stable composition” refers a composition comprising a sulfur-containing compound and a baseline amount of the compound of formula (I) (e.g., such as percent purity as measured by HPLC) such that, after being subjected to standard stability conditions (e.g., 40° C. and 75% relative humidity) for a specified period of time (e.g., 1 day, 2 days, 3 days, 4 days, 5 days, 7 days, 14 days, 21 days, or 30 days), at least about 80% of the original amount of the compound of formula (I) remains in the composition (i.e., has not oxidized to a compound of formula (II) or degraded to other by-products). In certain embodiments, at least about 85%, at least about 90%, at least about 91%, at least about 92%, at least about 93%, at least about 94%, or at least about 95% of the original amount of the hydroquinone compound of formula (I) remains in the composition for a specified period of time (e.g., 1 day, 2 days, 3 days, 4 days, 5 days, 7 days, 14 days, 21 days, or 30 days).
The stability data for 17-AG-HQ of Example 2 when kept at 40° C. and 75% relative humidity (RH) is depicted in FIG. 8 (see Table 2 for tabulated stability data). It was observed that 17-AG-HQ of Example 2 completely oxidizes to its quinone form in two weeks at 40° C. and […] as determined by HPLC.

[2] = Solubilizing or suspending agents: color change as indication of oxidation of 17-AG-HQ to 17-AG; format: physicochemical; conditions: argon headspace, checked up to one hour
Method: Solvents (2 mL) were pipetted out into labeled vials (Table 4). After purging the headspace with argon, the solvent vials were chilled at 4° C. for 1 hour. 17-AG-HQ of Example 2 (10 mg) was added each solvent vial and headspace was purged again with argon. The vials were checked for color change for up to one hour. Color change is an indication of stability: 17-AG-HQ is yellow while 17-AG is pink, thus a color change from yellow to pink would indicate oxidation of 17-AG-HQ to 17-AG. This listing of suitable solvents or suspending agents is also applicable for solvating/suspending the hydroquinones of Examples 3-6, 8, 10 or 11.

[3] = Table 12, formulations of 17-AG-HQ of Example 2

**Q.** For `CO[C@H]1/C=C\C=C(/C)C(=O)Nc2cc(O)c(N)c(c2O)C[C@@H](C)C[C@H](OC)[C@H](O)[C@@H](C)/C=C(\C)[C@@H]1OC(N)=O` [17-AG-HQ of Example 2, 17-amino-geldanamycin hydroquinone], which “time in which the hydroquinone completely oxidizes to its quinone form” value ([1]; determined by HPLC) is on record?
**A.** The value was “two”.

**Q.** What about the “stability compared to 17-AG-HQ HCl salt of Example 1” value ([1]; more prone to oxidation) of the same compound?
**A.** Its value is “less stable”.

**Q.** What about the “Percent Purity of 17-AG-HQ T = 0 Days” value ([1]; Table 2) of the same compound?
**A.** The value was 92%.

**Q.** And the “Percent Purity of 17-AG-HQ T = 2 Days” value ([1]; Table 2)?
**A.** Its value is 66%.

**Q.** And the “Percent Purity of 17-AG-HQ T = 5 Days” value ([1]; Table 2)?
**A.** Its value is 22%.

**Q.** And the “Percent Purity of 17-AG-HQ T = 14 Days” value ([1]; Table 2)?
**A.** The value was 0%.

**Q.** And the “Percent Purity of 17-AG-HQ T = 30 Days” value ([1]; Table 2)?
**A.** The value was 0%.

**Q.** And the “Percent Purity of 17-AG-HQ T = 0 Days” value [1, 3]?
**A.** The value was 92%.

**Q.** What about the “Percent Purity of 17-AG-HQ T = 2 Days” value [1, 3] of the same compound?
**A.** Its value is 66%.

**Q.** What about the “Percent Purity of 17-AG-HQ T = 5 Days” value [1, 3] of the same compound?
**A.** Its value is 22%.

**Q.** And the “Percent Purity of 17-AG-HQ T = 14 Days” value [1, 3]?
**A.** The value was 0%.

**Q.** And the “Percent Purity of 17-AG-HQ T = 30 Days” value [1, 3]?
**A.** Its value is 0%.

**Q.** And the Observations ([2]; Acetone, 10 mg in 2 mL solvent chilled at 4° C.)?
**A.** The Observations was “Dissolves with no color change”.

**Q.** And the Observations ([2]; DMSO:Acetonitrile:TFA (80:20:0.1), 10 mg in 2 mL solvent chilled at 4° C.)?
**A.** Its Observations is “Dissolves with color change to rusty”.

**Q.** And the Observations ([2]; Dichloromethane, 10 mg in 2 mL solvent chilled at 4° C.)?
**A.** The Observations was “Dissolves with no color change”.

**Q.** And the Observations ([2]; Ethanol, 10 mg in 2 mL solvent chilled at 4° C.)?
**A.** The Observations was “Dissolves with no color change”.

**Q.** And the Observations ([2]; Methanol, 10 mg in 2 mL solvent chilled at 4° C.)?
**A.** The Observations was “Dissolves with color change to red”.

**Q.** What about the Observations ([2]; Mineral Oil, 10 mg in 2 mL chilled at 4° C.) of the same compound?
**A.** The Observations was “Suspends with no color change”.

**Q.** And the Observations ([2]; Propylene Glycol, 10 mg in 2 mL solvent chilled at 4° C.)?
**A.** Its Observations is “Dissolves with color change to rusty”.

**Q.** And the Observations ([2]; Toluene, 10 mg in 2 mL solvent chilled at 4° C.)?
**A.** Its Observations is “Dissolves with no color change”.

**Q.** And the Observations ([2]; Xylene, 10 mg in 2 mL solvent chilled at 4° C.)?
**A.** The Observations was “Dissolves with no color change”.
